Experimental data from PubChem BioAssay AID1259407 (Chemical Carcinogenesis Research Information System (CCRIS), 2018).
Active and inactive are the calls of the source. The rule behind the calls is not given here.

Test system: CCRIS mutagenicity, Ames/micronucleus/aberration tests
Assay: CCRIS mutagenicity studies
[1] = Test System: AMES SALMONELLA TYPHIMURIUM, Strain/Indicator: TA97, Metabolic Activation: NONE, Method: PREINCUBATION
[2] = Test System: AMES SALMONELLA TYPHIMURIUM, Strain/Indicator: TA98, Metabolic Activation: NONE, Method: PREINCUBATION
[3] = Test System: AMES SALMONELLA TYPHIMURIUM, Strain/Indicator: TA100, Metabolic Activation: NONE, Method: PREINCUBATION
[4] = Test System: AMES SALMONELLA TYPHIMURIUM, Strain/Indicator: TA102, Metabolic Activation: NONE, Method: PREINCUBATION
[5] = Test System: AMES SALMONELLA TYPHIMURIUM, Strain/Indicator: TA1535, Metabolic Activation: NONE, Method: PREINCUBATION
[6] = Test System: AMES SALMONELLA TYPHIMURIUM, Strain/Indicator: TA1537, Metabolic Activation: NONE, Method: PREINCUBATION

## CCC(=O)O
Test System: AMES SALMONELLA TYPHIMURIUM, Strain/Indicator: TA97, Metabolic Activation: HAMSTER, LIVER, S-9, AROCLOR 1254 (10 OR 30%), Method: PREINCUBATION
  mutagenic call: inactive; negative
[1]
  mutagenic call: inactive; negative
Test System: AMES SALMONELLA TYPHIMURIUM, Strain/Indicator: TA97, Metabolic Activation: RAT, LIVER, S-9, AROCLOR 1254 (10 OR 30%), Method: PREINCUBATION
  mutagenic call: inactive; negative
Test System: AMES SALMONELLA TYPHIMURIUM, Strain/Indicator: TA97A, Metabolic Activation: NONE, Method: PREINCUBATION
  mutagenic call: inactive; negative
Test System: AMES SALMONELLA TYPHIMURIUM, Strain/Indicator: TA97A, Metabolic Activation: RAT, LIVER, S-9, AROCLOR 1254, Method: PREINCUBATION
  mutagenic call: inactive; negative
Test System: AMES SALMONELLA TYPHIMURIUM, Strain/Indicator: TA98, Metabolic Activation: HAMSTER, LIVER, S-9, AROCLOR 1254 (10 OR 30%), Method: PREINCUBATION
  mutagenic call: inactive; negative
[2]
  mutagenic call: inactive; negative
Test System: AMES SALMONELLA TYPHIMURIUM, Strain/Indicator: TA98, Metabolic Activation: RAT LIVER S-9, PHENOBARBITAL AND BETA-NAPHTHOFLAVONE, Method: PREINCUBATION
  mutagenic call: inactive; negative
Test System: AMES SALMONELLA TYPHIMURIUM, Strain/Indicator: TA98, Metabolic Activation: RAT, LIVER, S-9, AROCLOR 1254 (10 OR 30%), Method: PREINCUBATION
  mutagenic call: inactive; negative
Test System: AMES SALMONELLA TYPHIMURIUM, Strain/Indicator: TA100, Metabolic Activation: HAMSTER, LIVER, S-9, AROCLOR 1254 (10 OR 30%), Method: PREINCUBATION
  mutagenic call: inactive; negative
[3]
  mutagenic call: inactive; negative
Test System: AMES SALMONELLA TYPHIMURIUM, Strain/Indicator: TA100, Metabolic Activation: RAT LIVER S-9, PHENOBARBITAL AND BETA-NAPHTHOFLAVONE, Method: PREINCUBATION
  mutagenic call: inactive; negative
Test System: AMES SALMONELLA TYPHIMURIUM, Strain/Indicator: TA100, Metabolic Activation: RAT, LIVER, S-9, AROCLOR 1254 (10 OR 30%), Method: PREINCUBATION
  mutagenic call: inactive; negative
[4]
  mutagenic call: inactive; negative
Test System: AMES SALMONELLA TYPHIMURIUM, Strain/Indicator: TA102, Metabolic Activation: RAT, LIVER, S-9, AROCLOR 1254, Method: PREINCUBATION
  mutagenic call: inactive; negative
Test System: AMES SALMONELLA TYPHIMURIUM, Strain/Indicator: TA1535, Metabolic Activation: HAMSTER, LIVER, S-9, AROCLOR 1254 (10 OR 30%), Method: PREINCUBATION
  mutagenic call: inactive; negative
[5]
  mutagenic call: inactive; negative
Test System: AMES SALMONELLA TYPHIMURIUM, Strain/Indicator: TA1535, Metabolic Activation: RAT LIVER S-9, PHENOBARBITAL AND BETA-NAPHTHOFLAVONE, Method: PREINCUBATION
  mutagenic call: inactive; negative
Test System: AMES SALMONELLA TYPHIMURIUM, Strain/Indicator: TA1535, Metabolic Activation: RAT, LIVER, S-9, AROCLOR 1254 (10 OR 30%), Method: PREINCUBATION
  mutagenic call: inactive; negative
Test System: AMES SALMONELLA TYPHIMURIUM, Strain/Indicator: TA1537, Metabolic Activation: HAMSTER, LIVER, S-9, AROCLOR 1254 (30%), Method: PREINCUBATION
  mutagenic call: inactive; negative
[6]
  mutagenic call: inactive; negative
Test System: AMES SALMONELLA TYPHIMURIUM, Strain/Indicator: TA1537, Metabolic Activation: RAT LIVER S-9, PHENOBARBITAL AND BETA-NAPHTHOFLAVONE, Method: PREINCUBATION
  mutagenic call: inactive; negative
Test System: AMES SALMONELLA TYPHIMURIUM, Strain/Indicator: TA1537, Metabolic Activation: RAT, LIVER, S-9, AROCLOR 1254 (30%), Method: PREINCUBATION
  mutagenic call: inactive; negative
Test System: E.COLI, Strain/Indicator: WP2UVRA/PKM101, Metabolic Activation: NONE, Method: PREINCUBATION
  mutagenic call: inactive; negative
Test System: E.COLI, Strain/Indicator: WP2UVRA/PKM101, Metabolic Activation: RAT LIVER S-9, PHENOBARBITAL AND BETA-NAPHTHOFLAVONE, Method: PREINCUBATION
  mutagenic call: inactive; negative

## CCOCc1c(O)cc2c(c1O)C(=O)c1ccccc1C2=O
[1]
  mutagenic call: inactive; negative
Test System: AMES SALMONELLA TYPHIMURIUM, Strain/Indicator: TA97, Metabolic Activation: RAT, LIVER, S-9, AROCLOR 1254, Method: PREINCUBATION
  mutagenic call: active; positive
[2]
  mutagenic call: active; positive
Test System: AMES SALMONELLA TYPHIMURIUM, Strain/Indicator: TA98, Metabolic Activation: RAT, LIVER, S-9, AROCLOR 1254, Method: PREINCUBATION
  mutagenic call: active; positive
Test System: AMES SALMONELLA TYPHIMURIUM, Strain/Indicator: TA98, Metabolic Activation: RAT, LIVER, S-9, PCB, Method: PREINCUBATION
  mutagenic call: active; positive
[3]
  mutagenic call: active; positive
Test System: AMES SALMONELLA TYPHIMURIUM, Strain/Indicator: TA100, Metabolic Activation: RAT, LIVER, S-9, AROCLOR 1254, Method: PREINCUBATION
  mutagenic call: active; positive
Test System: AMES SALMONELLA TYPHIMURIUM, Strain/Indicator: TA100, Metabolic Activation: RAT, LIVER, S-9, PCB, Method: PREINCUBATION
  mutagenic call: active; positive
[4]
  mutagenic call: active; positive
Test System: AMES SALMONELLA TYPHIMURIUM, Strain/Indicator: TA102, Metabolic Activation: RAT, LIVER, S-9, Method: PREINCUBATION
  mutagenic call: active; positive
[6]
  mutagenic call: active; positive
Test System: AMES SALMONELLA TYPHIMURIUM, Strain/Indicator: TA1537, Metabolic Activation: RAT, LIVER, S-9, AROCLOR 1254, Method: PREINCUBATION
  mutagenic call: active; positive
Test System: AMES SALMONELLA TYPHIMURIUM, Strain/Indicator: TA1537, Metabolic Activation: RAT, LIVER, S-9, Method: PREINCUBATION
  mutagenic call: active; positive
Test System: CHINESE HAMSTER V-79, Strain/Indicator: V-79/8-AZAGUANINE, Metabolic Activation: NONE, Method: STANDARD PLATE
  mutagenic call: inactive; negative
Test System: CHINESE HAMSTER V-79, Strain/Indicator: V-79/8-AZAGUANINE, Metabolic Activation: PRIMARY RAT HEPATOCYTES, Method: STANDARD PLATE
  mutagenic call: active; positive

## CCCCN(CCCCO)N=O
[5]
  mutagenic call: inactive; negative
Test System: AMES SALMONELLA TYPHIMURIUM, Strain/Indicator: TA1535, Metabolic Activation: RAT, LIVER, HEPATOCYTES, Method: PREINCUBATION
  mutagenic call: inactive; negative
Test System: AMES SALMONELLA TYPHIMURIUM, Strain/Indicator: TA1535, Metabolic Activation: RAT, LIVER, S-9, AROCLOR, Method: PREINCUBATION
  mutagenic call: active; positive
Test System: AMES SALMONELLA TYPHIMURIUM, Strain/Indicator: TA1535, Metabolic Activation: RAT, LIVER, S-9, KC500 OR PHENOBARBITAL, Method: LIQUID SUSPENSION
  mutagenic call: active; positive
Test System: AMES SALMONELLA TYPHIMURIUM, Strain/Indicator: TA1535, Metabolic Activation: RAT, LIVER, S-9, SODIUM PHENOBARBITONE, Method: PREINCUBATION
  mutagenic call: active; positive
Test System: AMES SALMONELLA TYPHIMURIUM, Strain/Indicator: TA1535, Metabolic Activation: RAT, LIVER, S-9, Method: PREINCUBATION
  mutagenic call: inactive; negative

## Nc1cc(Cl)nc(C(=O)O)c1Cl
End Point: In vitro chromosomal aberrations, Test System: Primary rat lymphocytes, Metabolic Activation: Rodent S-9
  mutagenic call: inactive; negative
Test System: Ames Salmonella typhimurium, Strain/Indicator: TA98, Metabolic Activation: None, Method: Preincubation
  mutagenic call: inactive; negative; purity 94.5%
Test System: Ames Salmonella typhimurium, Strain/Indicator: TA98, Metabolic Activation: Rat, Liver, S-9, Aroclor 1254, Method: Preincubation
  mutagenic call: inactive; negative; purity 94.5%
Test System: Ames Salmonella typhimurium, Strain/Indicator: TA100, Metabolic Activation: None, Method: Preincubation
  mutagenic call: inactive; negative; purity 94.5%
Test System: Ames Salmonella typhimurium, Strain/Indicator: TA100, Metabolic Activation: Rat, Liver, S-9, Aroclor 1254, Method: Preincubation
  mutagenic call: inactive; negative; purity 94.5%
Test System: Ames Salmonella typhimurium, Strain/Indicator: TA1535, Metabolic Activation: None, Method: Preincubation
  mutagenic call: inactive; negative; purity 94.5%
Test System: Ames Salmonella typhimurium, Strain/Indicator: TA1535, Metabolic Activation: Rat, Liver, S-9, Aroclor 1254, Method: Preincubation
  mutagenic call: inactive; negative; purity 94.5%
Test System: Ames Salmonella typhimurium, Strain/Indicator: TA1537, Metabolic Activation: None, Method: Preincubation
  mutagenic call: inactive; negative; purity 94.5%
Test System: Ames Salmonella typhimurium, Strain/Indicator: TA1537, Metabolic Activation: Rat, Liver, S-9, Aroclor 1254, Method: Preincubation
  mutagenic call: inactive; negative; purity 94.5%
Test System: Chinese hamster ovary cells, Strain/Indicator: CHO-K1-BH4/HGPRT, Metabolic Activation: None, Method: Forward mutation assay
  mutagenic call: inactive; negative
Test System: Chinese hamster ovary cells, Strain/Indicator: CHO-K1-BH4/HGPRT, Metabolic Activation: Rat, Liver, S-9, Aroclor 1254, Method: Forward mutation assay
  mutagenic call: inactive; negative; purity 94.5%
Test System: E. coli, Strain/Indicator: WP2 UVR A, Metabolic Activation: None, Method: Preincubation
  mutagenic call: inactive; negative
Test System: E. coli, Strain/Indicator: WP2 UVRA, Metabolic Activation: Rat, Liver, S-9, Aroclor 1254, Method: Preincubation
  mutagenic call: inactive; negative
